Data from paper PMC11436758, “Computer-aided drug design to generate a unique antibiotic family” (Nature Communications, 2024).

Legend:
[1] = system: MRSA MMX 2119 (NRS23, USA100) and MRSA MMX 4675 (ATCC BAA-1556, USA300); assay: Time kill; type: cell-based, S. aureus; conditions: for drop in surviving bacteria: two strains of MRSA
Protocol: We also sought to determine if DNM0547 was bacteriostatic or bactericidal. Time kill experiments were carried out using increasing doses of DNM0547 against two different strains of MRSA.
Supplementary Figure 5. Time kill of DNM0547 versus S. aureus. The time kill of DNM0547
4675 (ATCC BAA-1556, USA300) were determined. Representative experiments are shown. […]

AcpS^F50/50A = AcpS^F50/50A (Escherichia coli, UniProt P24224, F49A); assay: Inhibition of purified AcpS site-directed mutant by DNM0547; type: biochemical, E. coli
Protocol: Using purified E. coli AcpS proteins, we determined the enzyme activity of wild-type and numerous AcpS mutants. Those analyzed by scanning alanine mutagenesis included (S. aureus amino acid residue followed by the corresponding E. coli residue) R46/48, F50/50, R54/53, K63/62, N82/81, and H-/108.
Recombinant His-Tagged AcpS expression was induced by IPTG addition and overnight culture. Cell lysate was obtained by sequential aspiration through 16, 18 and 21 G needles in a buffer of 50 mM Tris-HCl (pH 8.5), 10 mM MgCl2, 2 mM DTT, 5% glycerol, and further adjusted to pH 8.1 with MES. […] In a typical AcpS enzyme activity assay, 57 µM [^3H]acetyl-CoA, 2 µg apo-ACP, 10 mM MgCl2, 5 mM DTT, 50 mM Na phosphate (pH 7.0), and AcpS in a final volume of 10 µL were incubated at room temperature in a 1.5 mL microcentrifuge tube. At 5, 10, 15, and 20 min 2 µL of reaction were added to 750 µl 10% TCA on ice. […] 2 mL of scintillation fluid was added, and the amount of [^3H]-labeled holo-ACP formed was quantified by liquid scintillation counting. […] Routinely, each data point was determined at least by triplicate. […]
coli wild type and AcpS mutants determined using purified proteins. b, AcpS enzyme activity for each AcpS mutant was assayed at increasing concentration of DNM0547 (0-128 µM). IC50 was determined using GraphPad Prism. […]

Chain of AcpS^F50/50A (P24224 2-126 F49A): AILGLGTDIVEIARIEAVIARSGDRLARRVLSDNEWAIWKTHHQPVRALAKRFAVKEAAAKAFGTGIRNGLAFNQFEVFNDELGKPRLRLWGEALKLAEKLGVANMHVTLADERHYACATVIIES

With `CC(C)c1cc(Cl)ccc1-c1cc(-c2nnn[nH]2)c(-c2ccc(Cl)cc2C(C)C)s1` [DNM0547] the “drop in surviving bacteria” value ([1]; 2x MIC, at 2 h and 6 h) was “three”, the “drop in surviving bacteria” value ([1]; 4x and 8x MIC, at 2 h) was “three” and the CFU/mL ([1]; Suppl Fig 5a, S. aureus MMX 2119, 2X, 0 hr) was 7.70E+05 CFU/mL. The CFU/mL ([1]; Suppl Fig 5a, S. aureus MMX 2119, 2X, 2 hr) was 6.00E+02 CFU/mL, the CFU/mL ([1]; Suppl Fig 5a, S. aureus MMX 2119, 2X, 6 hr) was 3.00E+02 CFU/mL and the CFU/mL ([1]; Suppl Fig 5a, S. aureus MMX 2119, 2X, 24 hr) was “LOD”. It also gave a CFU/mL ([1]; Suppl Fig 5a, S. aureus MMX 2119, 4X, 0 hr) of 7.70E+05 CFU/mL, a CFU/mL ([1]; Suppl Fig 5a, S. aureus MMX 2119, 4X, 2 hr) of 4.50E+02 CFU/mL and a CFU/mL ([1]; Suppl Fig 5a, S. aureus MMX 2119, 4X, 6 hr) of 1.50E+02 CFU/mL. The CFU/mL ([1]; Suppl Fig 5a, S. aureus MMX 2119, 4X, 24 hr) was “LOD”, the CFU/mL ([1]; Suppl Fig 5a, S. aureus MMX 2119, 8X, 0 hr) was 7.70E+05 CFU/mL and the CFU/mL ([1]; Suppl Fig 5a, S. aureus MMX 2119, 8X, 2 hr) was “LOD”. For the same molecule, the CFU/mL ([1]; Suppl Fig 5a, S. aureus MMX 2119, 8X, 6 hr) was “LOD”, the CFU/mL ([1]; Suppl Fig 5a, S. aureus MMX 2119, 8X, 24 hr) was “LOD” and the CFU/mL ([1]; Suppl Fig 5b, S. aureus MMX 4657, 2X, 0 hr) was 1.01E+06 CFU/mL. The CFU/mL ([1]; Suppl Fig 5b, S. aureus MMX 4657, 2X, 2 hr) was 1.05E+03 CFU/mL, the CFU/mL ([1]; Suppl Fig 5b, S. aureus MMX 4657, 2X, 6 hr) was “LOD” and the CFU/mL ([1]; Suppl Fig 5b, S. aureus MMX 4657, 2X, 24 hr) was “LOD”. For the same molecule, the CFU/mL ([1]; Suppl Fig 5b, S. aureus MMX 4657, 4X, 0 hr) was 1.01E+06 CFU/mL, the CFU/mL ([1]; Suppl Fig 5b, S. aureus MMX 4657, 4X, 2 hr) was 2.50E+02 CFU/mL and the CFU/mL ([1]; Suppl Fig 5b, S. aureus MMX 4657, 4X, 6 hr) was “LOD”. For the same molecule, the CFU/mL ([1]; Suppl Fig 5b, S. aureus MMX 4657, 4X, 24 hr) was “LOD”, the CFU/mL ([1]; Suppl Fig 5b, S. aureus MMX 4657, 8X, 0 hr) was 1.01E+06 CFU/mL and the CFU/mL ([1]; Suppl Fig 5b, S. aureus MMX 4657, 8X, 2 hr) was “LOD”. For the same molecule, the CFU/mL ([1]; Suppl Fig 5b, S. aureus MMX 4657, 8X, 6 hr) was “LOD”, the CFU/mL ([1]; Suppl Fig 5b, S. aureus MMX 4657, 8X, 24 hr) was “LOD” and the IC50 (AcpS^F50/50A) was 16.2 µM.
